Square brackets hold non-standard residues; d marks the D form. Peptide text beside a SMILES is read from it. NMeY = CN[C@@H](Cc1ccc(O)cc1)C(=O)O; NMeT = CN[C@H](C(=O)O)[C@@H](C)O; NMeL = CN[C@@H](CC(C)C)C(=O)O
Key:
HsMetAP1 = HsMetAP1 (Homo sapiens, UniProt P53582); test: biochemical
HsMetAP2 = HsMetAP2 (Homo sapiens, UniProt P50579); test: biochemical
EcMetAP [1] = biological target: T1, EcMetAP (Escherichia coli, UniProt P0AE18); test: biochemical
T1 sequence (P0AE18 2-264): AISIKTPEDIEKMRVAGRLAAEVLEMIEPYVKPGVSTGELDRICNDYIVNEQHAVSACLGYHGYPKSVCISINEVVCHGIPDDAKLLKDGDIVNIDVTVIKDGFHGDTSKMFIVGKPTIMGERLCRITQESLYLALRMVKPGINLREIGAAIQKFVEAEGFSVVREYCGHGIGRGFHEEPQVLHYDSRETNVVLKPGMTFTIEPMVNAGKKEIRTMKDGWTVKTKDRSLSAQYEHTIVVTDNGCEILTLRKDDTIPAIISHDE

EcMetAP [2] = biological target: T1, EcMetAP; test: coupled fluorogenic Met-Gly-Pro-AMC / DPPIV assay; format: biochemical

HsMetAP2, sequence (P50579 2-478): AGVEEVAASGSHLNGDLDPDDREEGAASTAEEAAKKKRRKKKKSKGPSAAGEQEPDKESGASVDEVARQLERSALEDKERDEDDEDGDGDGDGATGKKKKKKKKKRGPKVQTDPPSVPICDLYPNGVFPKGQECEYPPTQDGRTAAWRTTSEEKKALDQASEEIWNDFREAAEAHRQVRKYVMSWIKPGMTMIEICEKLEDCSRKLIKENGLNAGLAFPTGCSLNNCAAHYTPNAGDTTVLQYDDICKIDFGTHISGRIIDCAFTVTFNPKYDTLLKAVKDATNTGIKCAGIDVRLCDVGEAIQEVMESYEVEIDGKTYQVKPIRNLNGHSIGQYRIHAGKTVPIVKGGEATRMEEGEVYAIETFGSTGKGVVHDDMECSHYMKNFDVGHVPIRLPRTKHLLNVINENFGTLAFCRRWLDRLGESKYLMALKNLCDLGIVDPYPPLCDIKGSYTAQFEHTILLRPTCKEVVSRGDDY

Row | Compound | IC50 (HsMetAP1) [mM] | IC50 (HsMetAP2) [mM] | IC50 (EcMetAP [1]) [mM] | IC50 (EcMetAP [2]) [nM]
1 | CN[C@@H](Cc1ccc(O)cc1)C(=O)N(C)[C@H](C(=O)N(C)[C@@H](CC(C)C)C(=O)OC)[C@@H](C)OC [NMe-Monomer] (H-[NMeY]-[NMeT](Me)-[NMeL]-OMe) | > 2 | > 2 | – | –
2 | CO[C@@H]1[C@H](OC(=O)NC(=O)CCl)CC[C@]2(CO2)[C@H]1[C@@]1(C)O[C@@H]1CC=C(C)C [TNP-470] | > 2 | 0.00069 ± 5e-05 | > 2 | –
3 | CCCCCCCCCCCCCC(=O)O[C@H]1CC[C@H](NC(=O)[C@H](OC)[C@H](O)[C@@H](O)[C@H](O)/C=C/C(C)C)C(=O)N(C)C1 [bengamide B] | – | – | > 2 | –
4 | CC(C)CC1C(=O)OC(C)C(N(C)C(=O)C(Cc2ccc(O)cc2)N(C)C)C(=O)N(C)C(CC(C)C)C(=O)OC(C)C(N(C)C(=O)C(Cc2ccc(O)cc2)N(C)C)C(=O)N1C (stereo not shown) [metapeptin A] | > 2 | > 2 | > 2 | –
5 | CNC(Cc1ccc(O)cc1)C(=O)N(C)C1C(=O)N(C)C(CC(C)C)C(=O)OC(C)C(N(C)C(=O)C(Cc2ccc(O)cc2)N(C)C)C(=O)N(C)C(CC(C)C)C(=O)OC1C (stereo not shown) [metapeptin B] | 0.0497 ± 0.00398 | > 2 | 0.00047 ± 0.00029 | ~500

Reference: article doi:10.1101/2022.06.11.495772v2 (biorxiv, 2022)
